According to ChEMBL document CHEMBL1134832, “Conformational analysis of tandospirone in aqueous solution: lead evolution of potent dopamine D4 receptor ligands” (Bioorg Med Chem Lett, 2001):

Experiments:
[1] = molecular target: T1, D(4) dopamine receptor (Homo sapiens, UniProt P21917); assay: Binding affinity to Dopamine receptor D4 was determined
T1 sequence (P21917 whole entry): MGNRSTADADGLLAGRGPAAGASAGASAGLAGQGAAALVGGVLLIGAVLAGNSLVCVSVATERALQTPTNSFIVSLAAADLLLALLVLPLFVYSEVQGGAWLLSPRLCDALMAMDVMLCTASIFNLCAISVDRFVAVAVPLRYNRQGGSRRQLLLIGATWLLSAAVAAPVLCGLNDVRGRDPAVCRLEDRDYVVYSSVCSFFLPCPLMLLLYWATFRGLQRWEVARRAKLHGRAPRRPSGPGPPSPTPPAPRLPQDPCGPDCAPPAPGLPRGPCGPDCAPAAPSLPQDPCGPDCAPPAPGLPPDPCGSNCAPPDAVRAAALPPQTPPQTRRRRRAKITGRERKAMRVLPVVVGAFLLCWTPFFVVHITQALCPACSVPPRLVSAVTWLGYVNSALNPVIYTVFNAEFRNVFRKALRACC

[2] = molecular target: D(2) dopamine receptor (Homo sapiens, UniProt P14416); assay: Binding affinity to Dopamine receptor D2 was determined
[3] = molecular target: T2, 5-hydroxytryptamine receptor 1A (Homo sapiens, UniProt P08908); assay: Binding affinity to 5-hydroxytryptamine 1A receptor was determined
T2 sequence (P08908 whole entry): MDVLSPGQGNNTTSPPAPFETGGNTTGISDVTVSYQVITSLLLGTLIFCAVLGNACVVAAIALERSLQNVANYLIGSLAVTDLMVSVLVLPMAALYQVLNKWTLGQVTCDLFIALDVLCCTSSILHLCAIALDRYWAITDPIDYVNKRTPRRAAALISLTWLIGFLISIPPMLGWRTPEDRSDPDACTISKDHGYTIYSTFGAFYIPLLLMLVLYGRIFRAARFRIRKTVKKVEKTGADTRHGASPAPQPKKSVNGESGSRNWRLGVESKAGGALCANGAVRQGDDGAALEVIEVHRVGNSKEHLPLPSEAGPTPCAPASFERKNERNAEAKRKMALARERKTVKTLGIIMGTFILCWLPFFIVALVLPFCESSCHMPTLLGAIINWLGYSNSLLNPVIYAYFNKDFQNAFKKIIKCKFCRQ

Sequence of D(2) dopamine receptor (P14416 whole entry): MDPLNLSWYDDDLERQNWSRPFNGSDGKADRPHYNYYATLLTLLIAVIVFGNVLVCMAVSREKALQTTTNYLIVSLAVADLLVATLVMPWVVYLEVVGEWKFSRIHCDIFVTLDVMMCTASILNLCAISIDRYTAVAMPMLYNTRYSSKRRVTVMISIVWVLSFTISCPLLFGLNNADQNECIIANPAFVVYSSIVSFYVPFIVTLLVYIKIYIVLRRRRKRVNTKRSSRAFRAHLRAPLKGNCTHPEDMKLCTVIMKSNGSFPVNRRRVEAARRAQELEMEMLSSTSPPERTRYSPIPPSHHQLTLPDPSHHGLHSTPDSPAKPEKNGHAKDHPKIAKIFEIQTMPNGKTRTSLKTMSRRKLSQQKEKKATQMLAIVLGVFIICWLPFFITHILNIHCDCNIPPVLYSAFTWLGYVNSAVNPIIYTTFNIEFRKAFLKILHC

Row | SMILES | Ki [1] [nM] | Ki [2] [nM] | Ki [3] [nM]
1 | CNc1nc(Cl)c(Sc2ccccc2)c(N2CCN(C)CC2)n1 | 250 | 188 | 460
2 | Cc1nc(Cl)c(Sc2ccc(Cl)cc2)c(N2CCN(C)CC2)n1 | 260 | 62 | 1500
3 | CN1CCN(c2nc3ccccc3c(Cl)c2Sc2ccccc2)CC1 | 92 | 31 | 2000
4 | Cc1nc(Cl)c(Sc2ccc(Cl)cc2)c(NC2CCN(Cc3ccccc3)CC2)n1 | 2.3 | 62 | 160
5 | CNc1nc(Cl)c(SC)c(N2CCN(C)CC2)n1 [MEZILAMINE] | > 10000 | 5.4 | 430
6 | O=C1[C@@H]2[C@H]3CC[C@H](C3)[C@@H]2C(=O)N1CCCCN1CCN(c2ncccn2)CC1 [TANDOSPIRONE] | 7.2 | 460 | 32
